In one assay the test system is HCT116 WT. Kind of assay: Proliferation of HCT116 colorectal cell line, Cell TiterGlo. Type of assay: cell-based, human. The procedure, abridged: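 Cell viability by CellTiter-Glo in parental HCT116, in a GCN2-knockout line, and in parental cells co-treated with ISRIB. IC50 from triplicate 10-point titrations; repeated values come from separate runs.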
(Cellular ATP, detected with luciferase, serves as a proxy for viable cell number.)

A further assay deals with HCT116 GCN2KO. Kind of assay: Proliferation of HCT116 cells with GCN2 knocked out (CRISPR), Cell TiterGlo. The format is cell-based, human. The conditions noted are these: Homo sapiens, HCT-116; HCT116 cells with GCN2 knocked out using CRISPR; read-out: HCT116 IC50 (uM) HCT116 − GCN2KO. As to the method: Briefly, compounds were tested for their effect on proliferation of HCT116 colorectal cell lines using Cell TiterGlo (Promega). Each compound was tested in a 10-point dose response experiment in triplicate. Multiple values in the column titled HCT116 WT reflect separate independent experiments. The three columns titled “HCT116 WT (repeat)”, “HCT116-CGN2KO” and “HCT116 WT+ISRIB” provide data for selected compounds that were tested simultaneously under three conditions. The HCT116 WT column lists IC50 against the wild type HCT116 colorectal cancer cell line. The HCT116-CGN2KO lists IC50 data for cells in which one component of the integrated stress response, GCN2, has been knocked out using CRISPR technology.

[1] abbreviates: Homo sapiens, HCT-116, wild type HCT116, 10-point dose response in triplicate, multiple values = separate independent experiments, read-out: HCT116 IC50 (uM) HCT116 WT.
[2] abbreviates: Homo sapiens, HCT-116, wild type HCT116, tested simultaneously with GCN2KO and +ISRIB, read-out: HCT116 IC50 (uM) HCT116 WT (repeat).
The mark [3] stands for this setting: wild type HCT116, compound plus 10 nM of ISRIB, read-out: HCT116 IC50 (uM) HCT116 WT + ISRIB.

Each structure is given as a SMILES string. Like-named read-outs stand apart in the source and are kept apart here.

As a reminder, the IC50 is the concentration that gives 50% inhibition.

Regarding `Cn1nc(-c2ccc(NC(=O)c3ccccc3)cc2)cc1NC(=O)c1cccc(C(F)(F)F)c1` [SW389155, N-(3-(4-Benzamidophenyl)-1-methyl-1H-pyrazol-5-yl)-3-(trifluoromethyl)benzamide], the IC50 worked out at 0.416 µM in the assay with HCT116 WT (setting [1]), 0.46 µM in the assay with HCT116 WT (setting [2]), 2.97 µM with HCT116 WT (setting [3]) and 2.2 µM in the assay on HCT116 GCN2KO.
On to `Cc1cccc(C(=O)Nc2cc(-c3ccc(NC(=O)c4ccccc4)cc3)nn2C)c1` [SW389156, N-(3-(4-Benzamidophenyl)-1-methyl-1H-pyrazol-5-yl)-3-methylbenzamide], for which the IC50 in the assay with HCT116 WT (setting [1]) came out at 0.298 µM; with HCT116 WT (setting [2]), 0.28 µM; with HCT116 WT (setting [3]), 2.45 µM; in the assay on HCT116 GCN2KO it was 2.22 µM.
For `Cn1nc(-c2ccc(NC(=O)c3ccccc3)cc2)cc1NC(=O)c1cccc(N=[N+]=[N-])c1` [SW389157, 3-Azido-N-(3-(4-benzamidophenyl)-1-methyl-1H-pyrazol-5-yl)benzamide] the same measures were 0.405 µM, 0.21 µM, 2.5 µM and 2.77 µM.
For `Cn1nc(-c2ccc(NC(=O)c3ccccc3)cc2)cc1NC(=O)c1cccc(C#N)c1` [SW389158, N-(3-(4-Benzamidophenyl)-1-methyl-1H-pyrazol-5-yl)-3-cyanobenzamide] the same measures were 0.561 µM, 0.39 µM, 3.01 µM and 2.96 µM.
As to `Cn1nc(-c2ccc(NC(=O)c3ccccc3)cc2)cc1NC(=O)c1cccc(F)c1` [SW389159, N-(3-(4-Benzamidophenyl)-1-methyl-1H-pyrazol-5-yl)-3-fluorobenzamide], the IC50 in the assay with HCT116 WT (setting [1]) was determined as 0.788 µM; in the assay on HCT116 WT (setting [2]), 0.38 µM; in the assay with HCT116 WT (setting [3]) it was 2.59 µM; with HCT116 GCN2KO it was 2.54 µM.
Taken in the same sequence, the figures for `Cn1nc(-c2ccc(NC(=O)c3ccccc3)cc2)cc1NC(=O)c1cccc(Cl)c1` [SW389161, N-(3-(4-benzamidophenyl)-1-methyl-1H-pyrazol-5-yl)-3-chlorobenzamide] were 1.27 µM, 1.06 µM, 8.26 µM and 11.7 µM.
For `Cn1nc(-c2ccc(NC(=O)c3ccccc3)cc2)cc1NC(=O)c1cccc(Br)c1` [SW389162, N-(3-(4-benzamidophenyl)-1-methyl-1H-pyrazol-5-yl)-3-bromobenzamide] the same measures were 0.335 µM, 0.32 µM, 2.6 µM and 3.14 µM.
`Cn1nc(-c2ccc(NC(=O)c3ccc(C#N)cc3)cc2)cc1NC(=O)c1ccccc1` [SW393061, N-(4-(5-benzamido-1-methyl-1H-pyrazol-3-yl)phenyl)-4-cyanobenzamide]: the IC50 with HCT116 WT (setting [2]) and with HCT116 GCN2KO was not below 50 µM throughout. In addition, the “HCT116 IC50 (uM) HCT116 WT” value in the assay with HCT116 WT (wild type HCT116, 10-point dose response in triplicate, multiple values = separate independent experiments) is “inactive”.
As for `Cn1nc(-c2ccc(NC(=O)c3cccc(Cl)c3)cc2)cc1NC(=O)c1ccccc1` [SW393062, N-(4-(5-benzamido-1-methyl-1H-pyrazol-3-yl)phenyl)-3-chlorobenzamide], the half-maximal inhibitory concentration (IC50) with HCT116 WT (setting [1]) turned out to be 2.1 µM; in the assay on HCT116 WT (setting [2]), 2.37 µM; in the assay with HCT116 WT (setting [3]), 8.72 µM; in the assay on HCT116 GCN2KO, 10.5 µM.
For `Cn1nc(-c2ccc(NC(=O)c3ccncc3)cc2)cc1NC(=O)c1ccccc1` [SW393063, N-(4-(5-benzamido-1-methyl-1H-pyrazol-3-yl)phenyl)isonicotinamide] the same measures were 3.2 µM, 2.04 µM, 3.1 µM and 3.69 µM.
As for `C#CCOc1cccc(C(=O)Nc2ccc(-c3cc(NC(=O)c4ccc(N=[N+]=[N-])cc4)n(C)n3)cc2)c1` [SW393065, N-(4-(5-(4-Azidobenzamido)-1-methyl-1H-pyrazol-3-yl)phenyl)-3-(prop-2-yn-1-yloxy)benza-mide], the IC50 with HCT116 WT (setting [1]) was found to be 3 µM; in the assay with HCT116 WT (setting [2]), 3.73 µM; in the assay on HCT116 WT (setting [3]) it was 3.26 µM; in the assay on HCT116 GCN2KO it was 3.23 µM.
As for `COC(=O)c1cccc(C(=O)Nc2ccc(-c3cc(NC(=O)c4ccccc4)n(C)n3)cc2)c1` [SW393068, methyl 3-((4-(5-benzamido-1-methyl-1H-pyrazol-3-yl)phenyl)carbamoyl)benzoate], the results for the IC50 in the assay with HCT116 WT (setting [1]), in the assay on HCT116 WT (setting [2]) and in the assay with HCT116 GCN2KO were 8.3 µM, 13.6 µM and 47 µM, respectively.
As for `Cn1nc(-c2ccc(NC(=O)c3cccc(C#N)c3)cc2)cc1NC(=O)c1ccccc1` [SW393069, N-(4-(5-benzamido-1-methyl-1H-pyrazol-3-yl)phenyl)-3-cyanobenzamide], the IC50 came to 17 µM in the assay with HCT116 WT (setting [1]), 7.43 µM in the assay on HCT116 WT (setting [2]), 12.7 µM with HCT116 WT (setting [3]) and 15.2 µM with HCT116 GCN2KO.
Turning to `Cn1nc(-c2ccc(NS(=O)(=O)c3ccccc3)cc2)cc1NC(=O)c1ccccc1` [SW393070, N-(1-methyl-3-(4-(phenylsulfonamido)phenyl)-1H-pyrazol-5-yl)benzamide], the IC50 was determined as 16 µM with HCT116 WT (setting [1]), 9.06 µM in the assay with HCT116 WT (setting [2]), 23.3 µM with HCT116 WT (setting [3]) and 22 µM in the assay on HCT116 GCN2KO.
For `Cn1nc(-c2ccc(NC(=O)c3ccc(Cl)cc3)cc2)cc1NC(=O)c1ccccc1` [SW393072, N-(4-(5-benzamido-1-methyl-1H-pyrazol-3-yl)phenyl)-4-chlorobenzamide] the same measures were 3.3 µM, 2.83 µM, 13.8 µM and 11.1 µM.
With `COC(=O)c1ccc(C(=O)Nc2ccc(-c3cc(NC(=O)c4ccccc4)n(C)n3)cc2)cc1` [SW393073, methyl 4-((4-(5-benzamido-1-methyl-1H-pyrazol-3-yl)phenyl)carbamoyl)benzoate], the IC50 is 14 µM in the assay with HCT116 WT (setting [1]), 8 µM in the assay on HCT116 WT (setting [2]) and not below 50 µM in the assay with HCT116 GCN2KO.
`Cn1nc(-c2ccc(NC(=O)c3ccccc3C(F)(F)F)cc2)cc1NC(=O)c1ccccc1` [SW393124, N-(4-(5-benzamido-1-methyl-1H-pyrazol-3-yl)phenyl)-2-(trifluoromethyl)benzamide]: the IC50 in the assay with HCT116 WT (setting [1]) was determined as 0.008 µM; with HCT116 WT (setting [2]), 0.02 µM; with HCT116 WT (setting [3]) it was 0.09 µM; in the assay on HCT116 GCN2KO, 0.08 µM.
For `C#CCOc1cccc(C(=O)Nc2cc(-c3ccc(NC(=O)c4ccccc4Cl)cc3)nn2C)c1` [SW393125, 2-Chloro-N-(4-(1-methyl-5-(3-(prop-2-yn-1-yloxy)benzamido)-1H-pyrazol-3-yl)phenyl)benz-amide] the same measures were 0.012 µM, 0.03 µM, 0.07 µM and 0.07 µM.
For `Cn1nc(-c2ccc(NC(=O)c3ccccn3)cc2)cc1NC(=O)c1ccccc1` [SW393126, N-(4-(5-benzamido-1-methyl-1H-pyrazol-3-yl)phenyl)picolinamide] the same measures were 3.32 µM, 7.17 µM, 25.8 µM and 32.9 µM.
For `Cn1nc(-c2ccc(NC(=O)c3cccnc3)cc2)cc1NC(=O)c1ccccc1` [SW393127, N-(4-(5-benzamido-1-methyl-1H-pyrazol-3-yl)phenyl)nicotinamide] the same measures were 0.5 µM, 1.46 µM, 7.5 µM and 6.64 µM.
For `Cn1nc(-c2ccc(NC(=O)c3ccccc3)cc2)cc1NC(=O)c1cccnc1` [SW393128, N-(3-(4-benzamidophenyl)-1-methyl-1H-pyrazol-5-yl)nicotinamide], the IC50 with HCT116 WT (setting [1]) was determined as 0.2 µM; in the assay with HCT116 WT (setting [2]), 0.48 µM; in the assay on HCT116 WT (setting [3]), 3.73 µM; in the assay on HCT116 GCN2KO it was 4.05 µM.
Taken in the same sequence, the figures for `Cn1nc(-c2ccc(NC(=O)c3ccccc3)cc2)cc1NC(=O)c1ccncc1` [SW393129, N-(3-(4-benzamidophenyl)-1-methyl-1H-pyrazol-5-yl)isonicotinamide] were 0.95 µM, 2.11 µM, 4.03 µM and 4.72 µM.
With `COC(=O)c1ccc(C(=O)Nc2cc(-c3ccc(NC(=O)c4ccccc4)cc3)nn2C)cc1` [SW393130, methyl 4-((3-(4-benzamidophenyl)-1-methyl-1H-pyrazol-5-yl)carbamoyl)benzoate], the figures for the IC50 in the assay on HCT116 WT (setting [1]), with HCT116 WT (setting [2]) and in the assay on HCT116 GCN2KO were 0.92 µM, 1.87 µM and not below 50 µM, respectively.
As for `Cn1nc(-c2ccc(NC(=O)c3ccccc3)cc2)cc1NC(=O)c1ccc(Cl)cc1` [SW393132, N-(3-(4-benzamidophenyl)-1-methyl-1H-pyrazol-5-yl)-4-chlorobenzamide], the IC50 in the assay on HCT116 WT (setting [1]) is more than 50 µM; with HCT116 WT (setting [2]), not below 50 µM; in the assay on HCT116 GCN2KO it was not below 50 µM.
With `Cn1nc(-c2ccc(NC(=O)c3ccccc3Br)cc2)cc1NC(=O)c1ccccc1` [SW393133, N-(4-(5-benzamido-1-methyl-1H-pyrazol-3-yl)phenyl)-2-bromobenzamide], the IC50 in the assay with HCT116 WT (setting [1]) was found to be 0.01 µM; in the assay with HCT116 WT (setting [2]), 0.03 µM; in the assay with HCT116 WT (setting [3]), 0.3 µM; in the assay on HCT116 GCN2KO, 0.21 µM.

The values above are taken from patent US20250257041A1, “INDUCERS OF INTEGRATED STRESS RESPONSE TO TREAT CANCER” (The Board of Regents of The University of Texas System, priority 2022, published 2025).
